One assay has as its system MEK1/2. The assay is described as follows: Western blot of pERKs and ERKs in whole brain lysates of normal mice. Format: in vivo. As to conditions: 0.1 mg/kg/day oral. How it is done:
Trametinib treatment: Trametinib (Medchemexpress, Monmouth Junction, N.J.) was micronized and suspended in the vehicle containing 5% mannitol, 1.5% hydroxypropyl methylcellulose and 0.2% sodium lauryl sulfate. For pharmacokinetic analysis, 0.05, 0.2 and 0.8 mg/kg of trametinib were orally administered to 7-week-old normal mice (ICR, n=5 per group) as a single administration. […] For studies on the change in pERK expression in normal mice and whole cell RNA sequencing study, 0.1 mg/kg/day of trametinib (in 4% DMSO+96% corn oil) was orally administered to 6-week old C57BL/6 mice (n=3 per group). Mice were sacrificed after 1, 2, 3, or 4 weeks of administration. 5XFAD mice (male, n=7˜10 per group) were divided into vehicle and trametinib treated groups. 12-month old mice received vehicle or 0.1 mg/kg of trametinib for 1 month by oral gavage once a day (These mice are referred to as “13-month old 5XFAD mice” in the Examples). […] Blood was obtained after completion of treatment.
Lysates were centrifuged at 13,000 rpm for 20 min at 4° C., and the protein content in the supernatant was determined using the Bradford assay (Bio-rad, Hercules, Calif.). For subcellular fractionation, cells were lysed with lysis buffer (250 mM Sucrose, 20 mM HEPES, pH 7.4, 10 mM KCl, 1.5 mM MgCl2, 1 mM EGTA, 1 mM EDTA, 1 mM DTT) containing protease inhibitor for 30 min on ice, followed by centrifugation at 720 g for 5 min at 4° C. Supernatants were centrifuged at 15,000 rpm for 10 min at 4° C., and the resulting supernatant was used as the cytosol fraction. After centrifugation at 720 g for 5 min, pellets were washed with lysis buffer and dissolved in nuclear lysis buffer (50 mM Tris HCl, pH 8.0, 150 mM NaCl, 1% NP40, 0.5% sodium deoxycholate, 0.1% SDS, 10% glycerol) as the nuclear fraction. Protein from each sample was subjected to 8%˜15% SDS-PAGE, and the resolved proteins were transferred to nitrocellulose or polyvinylidene fluoride membrane. The membranes were blocked with 5% nonfat milk powder in Tris-buffered saline/Tween 20 (TBST) for 1 h at room temperature, then incubated with anti-phospho-ERK (Cell signaling), anti-ERK (Cell signaling), anti-LAMP1 (Abcam), anti-LC3 (Cell signaling), anti-cathepsin B (Cell signaling), anti-p62 (Cell signaling), anti-p62 (5114, Cell signaling), anti-phospho-mTOR (5536, Cell signaling), anti-mTOR (2983, Cell signaling), anti-phospho-ULK1 (14202, Cell signaling), anti-ULK1 (8054, Cell signaling), anti-TFEB (852501, Biolegend), and anti-GAPDH (Cell signaling) overnight at 4° C. After washing, membranes were incubated with horseradish peroxidase-conjugated goat anti-rabbit IgG antibody (Thermo) or goat anti-rat IgG antibody (Thermo) for 2 h at room temperature. […] The detected signals were quantified using a LAS-4000 system (Fuji Film, Tokyo, Japan).

In the next assay the test system is SH-SY5Y cells. The assay can be described thus: Immunocytochemistry of LC3, LAMP1 and lysotracker in SH-SY5Y cells. The format is cell-based. How it is done: Cell culture: SH-SY5Y neuroblastoma cells were cultured at 37° C., 5% CO2., in Dulbecco's Modified Eagle Medium/Ham's F-12 nutrient mixture (DMEM/F12) (Invitrogen, Carlsbad, Calif.) supplemented with 10% heat-inactivated fetal bovine serum containing 100 units/ml penicillin, 100 μg/ml streptomycin. Primary cortical neuron cultures were derived from embryo day 18 (E18) from ICR mice. The dissociated cells were plated on glass cover slips coated with poly-D-lysine in Neurobasal medium supplemented with 2% B27 (Invitrogen), 100 units/ml penicillin, 100 μg/ml streptomycin, and 2 mM L-glutamine. Primary NSCs from normal mice were isolated from the subventricular zone (SVZ) of 8 week-old C57BL/6 mice brain. NSCs from adult Tg2576 mice brain were obtained from Seoul National University Hospital. […]
Immunocytochemistry: SH-SY5Y cells or adult NSCs were placed on glass coverslips coated with poly-L-ornithine/laminin or poly-D-lysine, respectively. […] The percentage of coefficient was calculated using the pixels above threshold of fluorescence intensities. […] The fluorescence intensity was observed under a confocal microscopy using a LSM700 microscope (Carl Zeiss). The number of LysoTracker puncta was analyzed with Icy software.

For assay [1], the system named is neurons and neural stem cells (NSCs). To be noted: in vitro, even in the presence of cytotoxic oligomers of Aβ1-42; cited from earlier work.

On to `CC(=O)Nc1cccc(-n2c(=O)n(C3CC3)c(=O)c3c(Nc4ccc(I)cc4F)n(C)c(=O)c(C)c32)c1` [trametinib], for which the “decrease of p-ERKs/ERKs ratio compared to vehicle treated group” value with MEK1/2 (1 week administration) came to 22.5%; in the assay on MEK1/2 (2 week administration) it was 33.7%; in the assay on MEK1/2 (3 week administration), 50%; with MEK1/2 (4 week administration), 45.6%. In addition, in the assay with SH-SY5Y cells (even in the presence of Aβ1-42 oligomers), the “co-staining of LC3-LAMP1” value was “increased co-staining of LC3-LAMP1”. Moreover, in the assay on SH-SY5Y cells (in the presence of Aβ1-42 oligomers), the lysotracker-positive acidic puncta entry is reported as “increased lysotracker-positive acidic puncta”. In addition, the “neuronal differentiation and survival of neurons and NSCs” value in assay [1] is “effective in inducing neuronal differentiation and promoting survival of neurons and neural stem cells (NSCs)”.
